Test results as given in ChEMBL document CHEMBL4028802, “DILIrank: the largest reference drug list ranked by the risk for developing drug-induced liver injury in humans” (Drug Discov Today, 2016).

Key:
Homo sapiens [1] = organism: Homo sapiens; experiment: Liver toxicity in human assessed as induction of drug-induced liver injury by measuring severity class index
Homo sapiens [2] = organism: Homo sapiens; experiment: Liver toxicity in human assessed as induction of drug-induced liver injury by measuring verified drug-induced liver injury concern status
For DILI severity class in this document: key of the grades not given here.

In the case of O=C1CCC(N2C(=O)c3ccccc3C2=O)C(=O)N1 (configuration not stated) [THALIDOMIDE], the DILI_severity_class (Homo sapiens [1]) is reported as 4 and the DILI_Concern (Homo sapiens [2]) is reported as “Less-Dili-Concern”.
With Cn1c(=O)c2[nH]cnc2n(C)c1=O.O [THEOPHYLLINE] the DILI_severity_class (Homo sapiens [1]) was 0 and the DILI_Concern (Homo sapiens [2]) was “No-Dili-Concern”.
c1ccc2[nH]c(-c3cscn3)nc2c1 [THIABENDAZOLE] was tested, and the DILI_severity_class (Homo sapiens [1]) was 7 and the DILI_Concern (Homo sapiens [2]) was “Most-Dili-Concern”.
In the case of Cc1ncc(C[n+]2csc(CCO)c2C)c(N)n1 [THIAMINE ION], the DILI_severity_class (Homo sapiens [1]) is reported as 0 and the DILI_Concern (Homo sapiens [2]) is reported as “No-Dili-Concern”.
For CSc1ccc2c(c1)N(CCC1CCCCN1C)c1ccccc1S2 (configuration not stated) [THIORIDAZINE], the DILI_severity_class (Homo sapiens [1]) was 5 and the DILI_Concern (Homo sapiens [2]) was “Less-Dili-Concern”.
S=P(N1CC1)(N1CC1)N1CC1 [THIOTEPA] was tested, and the DILI_severity_class (Homo sapiens [1]) was 3 and the DILI_Concern (Homo sapiens [2]) was “Less-Dili-Concern”.
For Cc1ccsc1C(=CCCN1CCC[C@@H](C(=O)O)C1)c1sccc1C [TIAGABINE], the DILI_severity_class (Homo sapiens [1]) was 3 and the DILI_Concern (Homo sapiens [2]) was “Ambiguous-Dili-Concern”.
With CN(C)c1cc(NC(=O)CNC(C)(C)C)c(O)c2c1C[C@H]1C[C@H]3[C@H](N(C)C)C(O)=C(C(N)=O)C(=O)[C@@]3(O)C(O)=C1C2=O [TIGECYCLINE] the DILI_severity_class (Homo sapiens [1]) was 8 and the DILI_Concern (Homo sapiens [2]) was “Ambiguous-Dili-Concern”.
For Cc1cc(Br)c(O)c2ncccc12 [TILBROQUINOL], the DILI_severity_class (Homo sapiens [1]) was 8 and the DILI_Concern (Homo sapiens [2]) was “Most-Dili-Concern”.
For O=P(O)(O)C(Sc1ccc(Cl)cc1)P(=O)(O)O [TILUDRONIC ACID], the DILI_severity_class (Homo sapiens [1]) was 0 and the DILI_Concern (Homo sapiens [2]) was “No-Dili-Concern”.
For CC(C)(C)NC[C@H](O)COc1nsnc1N1CCOCC1 [TIMOLOL], the DILI_severity_class (Homo sapiens [1]) was 5 and the DILI_Concern (Homo sapiens [2]) was “Ambiguous-Dili-Concern”.
For CCS(=O)(=O)CCn1c([N+](=O)[O-])cnc1C [TINIDAZOLE], the DILI_severity_class (Homo sapiens [1]) was 3 and the DILI_Concern (Homo sapiens [2]) was “Less-Dili-Concern”.
In the case of CC(S)C(=O)NCC(=O)O (configuration not stated) [TIOPRONIN], the DILI_severity_class (Homo sapiens [1]) is reported as 3 and the DILI_Concern (Homo sapiens [2]) is reported as “Ambiguous-Dili-Concern”.
With CCCCS(=O)(=O)N[C@@H](Cc1ccc(OCCCCC2CCNCC2)cc1)C(=O)O [TIROFIBAN] the DILI_severity_class (Homo sapiens [1]) was 0 and the DILI_Concern (Homo sapiens [2]) was “No-Dili-Concern”.
With Clc1ccc2nsnc2c1NC1=NCCN1 [TIZANIDINE] the DILI_severity_class (Homo sapiens [1]) was 8 and the DILI_Concern (Homo sapiens [2]) was “Most-Dili-Concern”.
In the case of Cc1ccc(S(=O)(=O)NC(=O)NN2CCCCCC2)cc1 [TOLAZAMIDE], the DILI_severity_class (Homo sapiens [1]) is reported as 2 and the DILI_Concern (Homo sapiens [2]) is reported as “Less-Dili-Concern”.
Cc1ccc(C(=O)c2cc(O)c(O)c([N+](=O)[O-])c2)cc1 [TOLCAPONE] was tested, and the DILI_severity_class (Homo sapiens [1]) was 8 and the DILI_Concern (Homo sapiens [2]) was “Most-Dili-Concern”.
For Cc1ccc(C(=O)c2ccc(CC(=O)O)n2C)cc1 [TOLMETIN], the DILI_severity_class (Homo sapiens [1]) was 3 and the DILI_Concern (Homo sapiens [2]) was “Less-Dili-Concern”.
In the case of COc1ccc2c(C(=S)N(C)CC(=O)O)cccc2c1C(F)(F)F [TOLRESTAT], the DILI_severity_class (Homo sapiens [1]) is reported as 8 and the DILI_Concern (Homo sapiens [2]) is reported as “Most-Dili-Concern”.
For Cc1ccc(O)c([C@H](CCN(C(C)C)C(C)C)c2ccccc2)c1 [TOLTERODINE], the DILI_severity_class (Homo sapiens [1]) was 0 and the DILI_Concern (Homo sapiens [2]) was “No-Dili-Concern”.
With Cc1ccccc1C(=O)Nc1ccc(C(=O)N2CCCC(O)c3cc(Cl)ccc32)c(C)c1 (configuration not stated) [TOLVAPTAN] the DILI_severity_class (Homo sapiens [1]) was 8 and the DILI_Concern (Homo sapiens [2]) was “Most-Dili-Concern”.
For CC1(C)O[C@@H]2[C@@H](CO[C@@]3(COS(N)(=O)=O)OC(C)(C)O[C@@H]23)O1 [TOPIRAMATE], the DILI_severity_class (Homo sapiens [1]) was 3 and the DILI_Concern (Homo sapiens [2]) was “Less-Dili-Concern”.
CC[C@@]1(O)C(=O)OCc2c1cc1n(c2=O)Cc2cc3c(CN(C)C)c(O)ccc3nc2-1 [TOPOTECAN] was tested, and the DILI_severity_class (Homo sapiens [1]) was 0 and the DILI_Concern (Homo sapiens [2]) was “No-Dili-Concern”.
In the case of CN(C)CCOc1ccc(/C(=C(/CCCl)c2ccccc2)c2ccccc2)cc1 [TOREMIFENE], the DILI_severity_class (Homo sapiens [1]) is reported as 3 and the DILI_Concern (Homo sapiens [2]) is reported as “Ambiguous-Dili-Concern”.
With Cc1cccc(Nc2ccncc2S(=O)(=O)NC(=O)NC(C)C)c1 [TORSEMIDE] the DILI_severity_class (Homo sapiens [1]) was 2 and the DILI_Concern (Homo sapiens [2]) was “Ambiguous-Dili-Concern”.
In the case of COc1cccc(C2(O)CCCCC2CN(C)C)c1 (configuration not stated) [TRAMADOL], the DILI_severity_class (Homo sapiens [1]) is reported as 7 and the DILI_Concern (Homo sapiens [2]) is reported as “Ambiguous-Dili-Concern”.
In the case of CCOC(=O)[C@H](CCc1ccccc1)N[C@@H](C)C(=O)N1[C@H](C(=O)O)C[C@H]2CCCC[C@@H]21 [TRANDOLAPRIL], the DILI_severity_class (Homo sapiens [1]) is reported as 4 and the DILI_Concern (Homo sapiens [2]) is reported as “Less-Dili-Concern”.
For N[C@@H]1C[C@H]1c1ccccc1.N[C@H]1C[C@@H]1c1ccccc1 [TRANYLCYPROMINE], the DILI_severity_class (Homo sapiens [1]) was 3 and the DILI_Concern (Homo sapiens [2]) was “Less-Dili-Concern”.
With O=c1n(CCCN2CCN(c3cccc(Cl)c3)CC2)nc2ccccn12 [TRAZODONE] the DILI_severity_class (Homo sapiens [1]) was 5 and the DILI_Concern (Homo sapiens [2]) was “Less-Dili-Concern”.
With CC1=C(/C=C/C(C)=C/C=C/C(C)=C/C(=O)O)C(C)(C)CCC1 [TRETINOIN] the DILI_severity_class (Homo sapiens [1]) was 3 and the DILI_Concern (Homo sapiens [2]) was “Ambiguous-Dili-Concern”.
In the case of CC(=O)Oc1ccc(C2(c3ccc(OC(C)=O)cc3)C(=O)N(C(C)=O)c3ccccc32)cc1 [TRIACETYLDIPHENOLISATIN], the DILI_severity_class (Homo sapiens [1]) is reported as 8 and the DILI_Concern (Homo sapiens [2]) is reported as “Most-Dili-Concern”.
Cc1nnc2n1-c1ccc(Cl)cc1C(c1ccccc1Cl)=NC2 [TRIAZOLAM] was tested, and the DILI_severity_class (Homo sapiens [1]) was 4 and the DILI_Concern (Homo sapiens [2]) was “Ambiguous-Dili-Concern”.
In the case of CN1CCN(CCCN2c3ccccc3Sc3ccc(C(F)(F)F)cc32)CC1 [TRIFLUOPERAZINE], the DILI_severity_class (Homo sapiens [1]) is reported as 2 and the DILI_Concern (Homo sapiens [2]) is reported as “Ambiguous-Dili-Concern”.
With OC(CCN1CCCCC1)(c1ccccc1)C1CCCCC1 (configuration not stated) [TRIHEXYPHENIDYL] the DILI_severity_class (Homo sapiens [1]) was 0 and the DILI_Concern (Homo sapiens [2]) was “No-Dili-Concern”.
With CN1C(=O)OC(C)(C)C1=O [TRIMETHADIONE] the DILI_severity_class (Homo sapiens [1]) was 5 and the DILI_Concern (Homo sapiens [2]) was “Ambiguous-Dili-Concern”.
COc1cc(C(=O)NCc2ccc(OCCN(C)C)cc2)cc(OC)c1OC [TRIMETHOBENZAMIDE] was tested, and the DILI_severity_class (Homo sapiens [1]) was 5 and the DILI_Concern (Homo sapiens [2]) was “Ambiguous-Dili-Concern”.
For COc1cc(Cc2cnc(N)nc2N)cc(OC)c1OC [TRIMETHOPRIM], the DILI_severity_class (Homo sapiens [1]) was 4 and the DILI_Concern (Homo sapiens [2]) was “Less-Dili-Concern”.
For COc1cc(NCc2ccc3nc(N)nc(N)c3c2C)cc(OC)c1OC [TRIMETREXATE], the DILI_severity_class (Homo sapiens [1]) was 3 and the DILI_Concern (Homo sapiens [2]) was “Ambiguous-Dili-Concern”.
In the case of CC(CN(C)C)CN1c2ccccc2CCc2ccccc21 (configuration not stated) [TRIMIPRAMINE], the DILI_severity_class (Homo sapiens [1]) is reported as 2 and the DILI_Concern (Homo sapiens [2]) is reported as “Ambiguous-Dili-Concern”.
Cc1ccc(/C(=C\CN2CCCC2)c2ccccn2)cc1 [TRIPROLIDINE] was tested, and the DILI_severity_class (Homo sapiens [1]) was 0 and the DILI_Concern (Homo sapiens [2]) was “No-Dili-Concern”.
Cc1c(C)c2c(c(C)c1O)CCC(C)(COc1ccc(CC3SC(=O)NC3=O)cc1)O2 (configuration not stated) [TROGLITAZONE] was tested, and the DILI_severity_class (Homo sapiens [1]) was 8 and the DILI_Concern (Homo sapiens [2]) was “Most-Dili-Concern”.
With NC(CO)(CO)CO [TROMETHAMINE] the DILI_severity_class (Homo sapiens [1]) was 6 and the DILI_Concern (Homo sapiens [2]) was “Ambiguous-Dili-Concern”.
In the case of O=C(O[C@H]1C[C@H]2CC[C@@H](C1)[N+]21CCCC1)C(O)(c1ccccc1)c1ccccc1.[Cl-] [TROSPIUM CHLORIDE], the DILI_severity_class (Homo sapiens [1]) is reported as 0 and the DILI_Concern (Homo sapiens [2]) is reported as “No-Dili-Concern”.
N[C@@H]1[C@H]2CN(c3nc4c(cc3F)c(=O)c(C(=O)O)cn4-c3ccc(F)cc3F)C[C@@H]12 [TROVAFLOXACIN] was tested, and the DILI_severity_class (Homo sapiens [1]) was 8 and the DILI_Concern (Homo sapiens [2]) was “Most-Dili-Concern”.
For NCCc1ccc(O)cc1 [TYRAMINE], the DILI_severity_class (Homo sapiens [1]) was 0 and the DILI_Concern (Homo sapiens [2]) was “No-Dili-Concern”.
C[C@H](CCC(=O)O)[C@H]1CC[C@H]2[C@@H]3[C@@H](O)C[C@@H]4C[C@H](O)CC[C@]4(C)[C@H]3CC[C@]12C [URSODIOL] was tested, and the DILI_severity_class (Homo sapiens [1]) was 0 and the DILI_Concern (Homo sapiens [2]) was “Ambiguous-Dili-Concern”.
